Measured values as given in ChEMBL document CHEMBL1201862, “PubChem BioAssay data set” (2004).
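Test compounds were applied to cells in 96-well plates for 48 hours at 5 doses. GI50 is the concentration that inhibits growth by half.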 Calls of active or inactive are those of the source. Rule as the data show it: active = GI50 up to about 1.1 µM and inactive = higher.

How the values were obtained:
Test in all cases: growth of human tumour cells (NCI), 48 h
A549 = test system: A549
COLO 205 = test system: COLO 205
HCC 2998 = test system: HCC 2998
HOP-62 = test system: HOP-62
HT-29 = test system: HT-29
KM12 = test system: KM12
LOX IMVI = test system: LOX IMVI
M14 = test system: M14
NCI-H522 = test system: NCI-H522
OVCAR-4 = test system: OVCAR-4
OVCAR-5 = test system: OVCAR-5
OVCAR-8 = test system: OVCAR-8
RPMI-8226 = test system: RPMI-8226
SF-268 = test system: SF-268
SK-OV-3 = test system: SK-OV-3
SR = test system: SR
DU-145 = test system: DU-145
MCF7 = test system: MCF7

Measured: GI50

CC12C3CC4C5CC(C(C53)[C@@H]1NCc1ccccc1)C42 (stereo partly specified)
inactive: A549 > 100 µM | COLO 205 18.5 µM | HCC 2998 15.5 µM | HOP-62 > 100 µM | HT-29 24.4 µM | KM12 > 100 µM | LOX IMVI > 100 µM | M14 > 100 µM | NCI-H522 36.2 µM | OVCAR-4 > 100 µM | OVCAR-5 86.9 µM | OVCAR-8 > 100 µM | RPMI-8226 > 100 µM | SF-268 > 100 µM | SK-OV-3 > 100 µM | SR > 100 µM

CCCCN(CC)C(=O)C1=C(C)NC(C)=C(C(=O)N(CC)CCCC)C1
inactive: A549 > 100 µM | COLO 205 > 100 µM | DU-145 > 100 µM | HCC 2998 > 100 µM | HOP-62 > 100 µM | HT-29 > 100 µM | KM12 > 100 µM | LOX IMVI > 100 µM | M14 > 100 µM | MCF7 > 100 µM | OVCAR-4 > 100 µM | OVCAR-5 > 100 µM | OVCAR-8 > 100 µM | SF-268 > 100 µM | SK-OV-3 > 100 µM

CCCCCCCCOCC(O)CO (stereo unspecified)
inactive: A549 > 100 µM | COLO 205 > 100 µM | HCC 2998 89.5 µM | HOP-62 > 100 µM | HT-29 > 100 µM | KM12 29.5 µM | LOX IMVI > 100 µM | M14 > 100 µM | NCI-H522 28 µM | OVCAR-4 > 100 µM | OVCAR-5 > 100 µM | OVCAR-8 > 100 µM | RPMI-8226 44.6 µM | SF-268 > 100 µM | SK-OV-3 > 100 µM | SR 45.9 µM

Cc1ccc(NC(=O)/C(=N/NC(=O)CC#N)C2C(=O)N(c3ccccc3)N=C2N)cc1C (stereo unspecified)
inactive: A549 > 100 µM | COLO 205 > 100 µM | HCC 2998 > 100 µM | HOP-62 > 100 µM | HT-29 > 100 µM | KM12 > 100 µM | LOX IMVI > 100 µM | M14 > 100 µM | NCI-H522 > 100 µM | OVCAR-4 > 100 µM | OVCAR-5 > 100 µM | OVCAR-8 > 100 µM | RPMI-8226 > 100 µM | SF-268 > 100 µM | SK-OV-3 > 100 µM | SR > 100 µM

CC(C)(CN1CCCCC1)C(=O)/C=C/c1ccc(Cl)cc1
inactive: A549 3.42 µM | COLO 205 4.82 µM | HCC 2998 13.2 µM | HOP-62 > 10 µM | HT-29 3.22 µM | KM12 2.95 µM | LOX IMVI 2.84 µM | M14 2.51 µM | NCI-H522 2.73 µM | OVCAR-4 4.27 µM | OVCAR-5 11.4 µM | OVCAR-8 2.32 µM | RPMI-8226 2.94 µM | SF-268 3.34 µM | SK-OV-3 11.2 µM | SR 2.58 µM

CC(C)C1(O)C(c2ccccc2)=C(c2ccccc2)C(c2ccccc2)=C1c1ccccc1
inactive: A549 6.76 µM | COLO 205 10.1 µM | HCC 2998 8.69 µM | HOP-62 12.1 µM | HT-29 4.26 µM | KM12 4.9 µM | LOX IMVI 6.59 µM | M14 6.95 µM | NCI-H522 4.35 µM | OVCAR-4 5.73 µM | OVCAR-5 17.5 µM | OVCAR-8 10.3 µM | RPMI-8226 2.28 µM | SF-268 4.49 µM | SK-OV-3 15.2 µM | SR 2.96 µM

CN(C)CCC1(C2=CCCC2)CC/C(=C\c2ccc(Cl)cc2)C1=O (stereo unspecified)
inactive: A549 12.4 µM | COLO 205 12.4 µM | HCC 2998 7.82 µM | HOP-62 16.9 µM | HT-29 2.95 µM | KM12 9.91 µM | LOX IMVI 10.1 µM | M14 2.01 µM | NCI-H522 6.68 µM | OVCAR-4 9.46 µM | OVCAR-5 12.9 µM | OVCAR-8 12.3 µM | RPMI-8226 5.73 µM | SF-268 11.8 µM | SK-OV-3 6.93 µM | SR 4.51 µM
